What all share (assay type): cell-based
For assay [1], the system named is A549 human lung adenocarcinoma cells. The assay can be described thus: cell proliferation assay, A549. The conditions noted are these: read-out: A549 Lung (+p53). The source says: (§1) In this Example, the warfarin neoglycosides of the invention were screened for anti-tumor activity in cell proliferation assays using the following tumor cells lines: A549—human lung adenocarcinoma; H1299—human lung adenocarcinoma (p53 null); HCT-15—human colorectal adenocarcinoma; HT-29—human colorectal adenocarcinoma; MCF7—human breast adenocarcinoma; NCI-H460—human lung adenocarcinoma; SF-268—human CNS adenocarcinoma; and SKOV-3—human ovarian adenocarcinoma.
(§2) All cell lines were maintained as previously reported (see Langenhan, J. M.; Peters, N. R.; Guzei, I. A.; Hoffmann, F. M.; Thorson, J. S. Proc. Natl. Acad. Sci. USA 2005, 102, 12305-12310, which is incorporated by reference herein). Cells were harvested using 0.25% trypsin and 0.1% EDTA and counted in a Cellometer Auto T4 cell counter (Nexcelom, Inc.) prior to dilution for assay plating. Cells were plated at a denity of 500 cells per well in 50 μL volumes in 384-well clear-bottom tissue culture plates (Corning-Costar, Inc.).
(§3) Compounds were added from the 384-well compound stock plates at a 1:100 dilution using a Biomek FX liquid handler equipped with a 384-channel head (Beckman Coulter, Inc.). The plates were incubated for 7 days at 37° C. in a 5% CO2 atmosphere prior to performing the assays. Calcein AM (acetoxymethyl ester) reagent and EthD-1 (30 μL, 10 μM CAM and 100 μM EthD-1) was added and the cells were incubated for 30 min at 37° C. […] resulting from incubation with Calcein AM and EthD-1 was read using a Safire-2 microplate reader at the appropriate wavelengths. To lyse the cells, 15 μL of CellTiter-Glo reagent (Promega Corporation, Inc.) was added and the cells were incubated for 10 min at room temperature with gentle agitation. The luminescence of each plate was re-read to confirm the observed inhibition.
(§4) IC50s for cell proliferation assays were determined for Calcein AM, the ratio of live/dead cells (Calcein AM/EthD-1), and CellTiter-Glo using XLfit 4.0 as previously described (see Langenhan, J. M.; Peters, N. R.; Guzei, I. A.; Hoffmann, F. M.; Thorson, J. S. Proc. Natl. Acad. Sci. USA 2005, 102, 12305-12310, which is incorporated by reference herein). The IC50 determined using the best fit curve for dosage response from any of the 3 assays is reported as the final IC50. The best fit curve is defined as the curve with the lowest standard error.

Assay [2] deals with H1299 human lung adenocarcinoma (p53 null) cells. Kind of assay: cell proliferation assay, H1299.
Description: as §1, §2, §3
(§5) IC50s for cell proliferation assays were determined for Calcein AM, the ratio of live/dead cells (Calcein AM/EthD-1), and CellTiter-Glo using XLfit 4.0 as previously described (see Langenhan, J. M.; Peters, N. R.; Guzei, I. A.; Hoffmann, F. M.; Thorson, J. S. Proc. Natl. Acad. Sci. USA 2005, 102, 12305-12310, which is incorporated by reference herein). The IC50 determined using the best fit curve for dosage response from any of the 3 assays is reported as the final IC50.

Assay [3] deals with HCT-15 human colorectal adenocarcinoma cells. The assay can be described thus: cell proliferation assay, HCT-15. The settings on record: Table 3 summary of most active compounds, IC50, read-out: HCT15 Colorectal.
Description: as §1, §2, §3, §4

Assay [4] relates to HT-29 human colorectal adenocarcinoma cells. The assay can be described thus: cell proliferation assay, HT-29.
Description: as §1, §2, §3, §4

The test system of assay [5] is MCF7 human breast adenocarcinoma cells. Kind of assay: cell proliferation assay, MCF7.
Description: as §1, §2, §3, §5

The next assay concerns NCI/ADR-RES. The assay can be described thus: cell proliferation assay, NCI/ADR-RES. The conditions noted are these: Table 3 summary of most active compounds. As for the experimental part:
as §2, §3, §5

The subject of assay [6] is NCI-H460 human lung adenocarcinoma cells. The assay can be described thus: cell proliferation assay, NCI-H460.
Description: as §1, §2, §3, §4

Assay [7] relates to SF-268 human CNS adenocarcinoma cells. The assay can be described thus: cell proliferation assay, SF-268.
Description: as §1, §2, §3, §5

Assay [8] has as its system SKOV-3 human ovarian adenocarcinoma cells. The assay can be described thus: cell proliferation assay, SKOV-3. The conditions noted are these: read-out: SKOV3 Ovarian.
Description: as §1, §2, §3, §4

Setting [9] is: Table 3 summary of most active compounds, listed as D-xylose.
Setting [10] is: Table 3 summary of most active compounds, listed as L-arabinose.
[11] abbreviates: Table 3 summary of most active compounds, listed as L-lyxose.
[12] abbreviates: Table 3 summary of most active compounds.
The mark [13] stands for this setting: Table 3 summary of most active compounds, IC50, read-out: H729 Colorectal.
Setting [14] is: Table 3 summary of most active compounds, IC50, read-out: SF268 Giloblast.

Molecules are shown by their SMILES. Read-outs that look alike come from different tables or passages of the source.

Take `CON(C(C)CC(c1ccccc1)c1c(O)c2ccccc2oc1=O)C1OCC(O)C(O)C1O` (mixture of isomers) [WARF Analog 9]: the IC50 was found to be 40 µM in assay [1] (setting [9]); 27 µM in [2] (setting [9]); 11 µM in [3] (listed as D-xylose); 43 µM in assay [4] (Table 3 summary of most active compounds, IC50, listed as D-xylose, read-out: H729 Colorectal); 12 µM in assay [5] (setting [9]); 38 µM in the assay on NCI/ADR-RES (listed as D-xylose). For the same compound, the IC50 in assay [6] (setting [9]) was determined as 99 µM; in assay [7] (Table 3 summary of most active compounds, IC50, listed as D-xylose, read-out: SF268 Giloblast), 37 µM; in assay [8] (setting [9]), 52 µM.

`CON(C(C)CC(c1ccccc1)c1c(O)c2ccccc2oc1=O)C1OCC(O)C(O)C1O` (mixture of isomers) [WARF Analog 15]: the IC50 in assay [1] (setting [10]) is 48 µM; in assay [2] (setting [10]), 51 µM; in assay [3] (listed as L-arabinose), 49 µM; in assay [4] (Table 3 summary of most active compounds, IC50, listed as L-arabinose, read-out: H729 Colorectal), 97 µM; in assay [5] (setting [10]) it was 79 µM; in the assay on NCI/ADR-RES (listed as L-arabinose), 68 µM. Besides, the IC50 in assay [6] (setting [10]) was greater than 100 µM; in [7] (Table 3 summary of most active compounds, IC50, listed as L-arabinose, read-out: SF268 Giloblast), 69 µM; in assay [8] (setting [10]) it was 76 µM.

As for `CON(C(C)CC(c1ccccc1)c1c(O)c2ccccc2oc1=O)C1OCC(O)C(O)C1O` (mixture of isomers) [WARF Analog 23], the IC50 in assay [1] (setting [11]) came out at 95 µM; in assay [2] (setting [11]), 30 µM; in assay [3] (listed as L-lyxose), 14 µM; in assay [4] (Table 3 summary of most active compounds, IC50, listed as L-lyxose, read-out: H729 Colorectal) it was 47 µM; in [5] (setting [11]) it was 18 µM; in the assay on NCI/ADR-RES (listed as L-lyxose), 56 µM. In addition, the IC50 was greater than 100 µM in [6] (setting [11]); greater than 100 µM in [7] (Table 3 summary of most active compounds, IC50, listed as L-lyxose, read-out: SF268 Giloblast); 60 µM in assay [8] (setting [11]).

Take `CON(C(C)CC(c1ccccc1)c1c(O)c2ccccc2oc1=O)C1OC(C)C(O)C(O)C1O` (mixture of isomers) [WARF Analog 12]: the IC50 in assay [1] (setting [12]) was greater than 100 µM; in assay [2] (setting [12]), greater than 100 µM; in [3] (listed as L-fucose) it was 9 µM; in [4] (Table 3 summary of most active compounds, IC50, listed as L-fucose, read-out: H729 Colorectal), 80 µM; in assay [5] (setting [12]) it was greater than 100 µM; in the assay with NCI/ADR-RES, greater than 100 µM. The IC50 in assay [6] (setting [12]) is greater than 100 µM; in [7] (Table 3 summary of most active compounds, IC50, listed as L-fucose, read-out: SF268 Giloblast), 89 µM; in assay [8] (Table 3 summary of most active compounds, listed as L-fucose), 81 µM.

For the compound `CONC(C)CC(c1ccccc1)c1c(O)c2ccccc2oc1=O` (stereo not drawn) [WARF Analog C, 4-hydroxy-3-(3-(methoxyamino)-1-phenylbutyl)-2H-1-benzopyran-2-one], the IC50 in assay [1] (Homo sapiens, A549, Table 3 summary of most active compounds) was greater than 100 µM; in assay [2] (Homo sapiens, NCI-H1299, Table 3 summary of most active compounds) it was greater than 100 µM; in assay [3] (Homo sapiens, HCT-15), greater than 100 µM; in assay [4] (Homo sapiens, HT-29, read-out: H729 Colorectal), greater than 100 µM; in assay [5] (Homo sapiens, MCF7, Table 3 summary of most active compounds), greater than 100 µM; in the assay with NCI/ADR-RES (Homo sapiens) it was greater than 100 µM. For the same compound, the IC50 in assay [6] (Homo sapiens, NCI-H460, Table 3 summary of most active compounds) is greater than 100 µM; in assay [7] (Homo sapiens, SF-268, read-out: SF268 Giloblast), greater than 100 µM; in assay [8] (Homo sapiens, SK-OV-3, Table 3 summary of most active compounds), greater than 100 µM.

In the case of `CON(C(C)CC(c1ccccc1)c1c(O)c2ccccc2oc1=O)C1CC(C)(O)C(O)C(C)O1` (mixture of isomers) [WARF Analog 37], the IC50 is greater than 100 µM in [1] (setting [12]); greater than 100 µM in assay [2] (setting [12]); 16 µM in assay [3]; greater than 100 µM in assay [4] (setting [13]); greater than 100 µM in [5] (setting [12]); greater than 100 µM in the assay on NCI/ADR-RES. Also, the IC50 in assay [6] (setting [12]), in assay [7] (setting [14]) and in assay [8] (setting [12]) was greater than 100 µM throughout.

As for `CON(C(C)CC(c1ccccc1)c1c(O)c2ccccc2oc1=O)C1CC(O)C(O)CO1` (mixture of isomers) [WARF Analog 11], the IC50 is greater than 100 µM in assay [1] (setting [12]); 92 µM in assay [2] (setting [12]); 13 µM in [3]; greater than 100 µM in [4] (setting [13]); 78 µM in [5] (setting [12]); greater than 100 µM in the assay on NCI/ADR-RES. Further, the IC50 in assay [6] (setting [12]), in assay [7] (setting [14]) and in [8] (setting [12]) was greater than 100 µM in each case.

For the origin of these results see patent publication US8278436B2, “Glycosylated warfarin analogs and uses thereof” (priority 2008, dated 2012).
